Test system: methanogens
Experiment: Methanogen propagation upon fumarate treatment of rice (qPCR methanogen determination)
Conditions: SUSIBA2 rice and Nipponbare rice treated with fumarate for two weeks (from Week 6 to Week 8), groups Mst, MET, Msc, MBT, MMB, Arc
Experimental: FIG. 12. Response of methanogen propagation of different groups upon fumarate treatment for two weeks (from Week 6 to Week 8). Mst (Methanosaetaceae), MET (methanogens), Msc (Methanosarcinaceae), MBT (Methanobacteriales), MMB (Methanomicrobiales), Arc (archaea), and Met for Methanocella-specific.
Quantitative PCR was performed for both methanogen determination and rice gene expression in the same way as described in Su et al. (2015).
CRISPR/Cas technology was used to successfully delete the yin transcription factor (sucrose-response region) in the yin-yang system (Jin et al. (2017)) in rice to achieve larger panicles (FIG. 11). The increased panicle size meant that more carbon was reallocated to the panicles, which in turn led to less carbon to fumarate section from roots below ground.

O=C(O)/C=C/C(=O)O [fumarate]
Response of methanogen propagation of different groups upon fumarate treatment: all methanogen groups propagated

Reference: patent US20220177902A1, “LOW-METHANE RICE” (priority 2019, published 2022)
